{"source": "patent US8846627B2", "about": "“Method for treatment of malaria” (The Second Military Medical University, priority 2009, dated 2014)", "biological_target": "T1, Falcipain-2 protease (FP-2) (Plasmodium falciparum, UniProt Q8I6U4)", "T1 construct": "The falcipain-2 fragment was amplified by the polymerase chain reaction (PCR); His6 (N-terminal MRGS-His6 supplied by the pQE-30 vector; own knowledge of the vector, consistent with the Ni2+-NTA purification) (N); made in house; host or cells: E. coli M15", "T1 sequence (Q8I6U4 244-484)": "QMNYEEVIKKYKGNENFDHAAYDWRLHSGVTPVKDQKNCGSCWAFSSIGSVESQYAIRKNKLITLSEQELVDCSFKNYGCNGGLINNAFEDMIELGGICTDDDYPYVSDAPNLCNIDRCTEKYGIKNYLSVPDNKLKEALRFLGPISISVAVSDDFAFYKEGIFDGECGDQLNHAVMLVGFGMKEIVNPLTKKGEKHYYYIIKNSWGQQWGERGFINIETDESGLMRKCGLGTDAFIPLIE", "test": "SPR (Biacore 3000) binding assay with immobilised FP-2 protein", "conditions": "SPR screening at 1 μM and 10 μM", "description": "The screening and kinetics determination of the falcipain-2 protease and tiliroside binding activity are based on SPR mechanism, which employs Biacore 3000 (Biacore AB, Uppsala, Sweden).\n(1) The Construction of Falcipain-2 Plasmid (pQE30-Fal2)\nPrimers were designed according to the falcipain-2 cDNA sequence, utilizing the following primers, forward 5′[…]3′(SEQ ID NO. 1) and reverse 5′[…]3′ (SEQ ID NO. 2), which including two restriction sites, BamH I and SaI I The falcipain-2 fragment was amplified by the polymerase chain reaction (PCR), and the PCR product was ligated into the pQE-30 expression vector and then further verified by sequencing. This construct was transformed into E. coil M15 (Qiagen).\n(2) Expression and Purification of Falcipain-2 Protein\nThe engineering bacteria were obtained by transforming constructed plasmid pQE30-Fal2 into the E. coli M15 cells. They were culturing in LB medium (10 g/L tryptone, 5 g/L yeast extract, 10 g/L sedium chloride) containing ampicillin […] and kanamtcin […] for overnight. Then, transfer the bacteria into fresh LB medium (1 L) containing ampicillin and kanamycin (according to 1:100) at 37° C., 220 rpm. […] Bound protein was eluted with 8M urea, 20 mM Tris-Cl, 1M imidazole, pH 8.0, and the eluted protein was analyzed by SDS-PAGE. […]", "data": [{"smiles": "O=C(/C=C/c1ccc(O)cc1)OC[C@H]1O[C@@H](Oc2c(-c3ccc(O)cc3)oc3cc(O)cc(O)c3c2=O)[C@H](O)[C@@H](O)[C@@H]1O", "note": "[Tiliroside]", "values": [{"measurement": "binding activity with FP-2 protein", "value": "obvious binding activity"}]}]}
